The values below come from patent publication US20250243171A1, “QUINAZOLINE COMPOUNDS FOR TREATMENT OF DISEASE” (Arthrosi Therapeutics, Inc., priority 2021, published 2025).

Test in all cases: EC50 assay: Ba/F3 stable cell proliferation (CCK-8, 72 h)
Type in all cases: cell-based

Experiment [1] deals with T1, Ba/F3 stable cells (Homo sapiens, UniProt P00533, DUP768-770, cells depend on it).
T1 construct: EC50 Ba/F3-EGFR D770-N771insSVD; other: Ba/F3-EGFR D770-N771insSVD cells, 72 h, CCK-8
As to conditions: Ba/F3-EGFR D770-N771insSVD cells. The method, boiled down: (§1)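 Ba/F3 stable cells were seeded at 4,000 cells/90 μL/well in 96-well plates and held 2 h at 37° C. in 5% CO2, then given 10 μL of serially titrated compound (0.1% DMSO final). After 72 h at 37° C., CCK-8 reagent was added for 4 hours and absorbance read at 450 nm to derive EC50.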

For experiment [2], the target named is T2, Ba/F3 stable cells (Homo sapiens, UniProt P00533, DUP771-773, cells depend on it).
T2 construct: EC50 Ba/F3-EGFR H773-V774insNPH; other: Ba/F3-EGFR H773-V774insNPH cells, 72 h, CCK-8
As to conditions: Ba/F3-EGFR H773-V774insNPH cells. The method, boiled down:
as §1

Experiment [3] has as its target T3, Ba/F3 stable cells (Homo sapiens, UniProt P00533, DUP767-769, cells depend on it).
T3 construct: EC50 Ba/F3-EGFR V769-D770insASV; other: Ba/F3-EGFR V769-D770insASV cells, 72 h, CCK-8
As to conditions: Ba/F3-EGFR V769-D770insASV cells. The essentials:
as §1

For experiment [4], the target named is T4, Ba/F3 stable cells (Homo sapiens, UniProt P00533, INS763FQEA, cells depend on it).
T4 construct: EC50 Ba/F3-EGFR A763-Y764insFQEA; other: Ba/F3-EGFR A763-Y764insFQEA cells, 72 h, CCK-8
As to conditions: Ba/F3-EGFR A763-Y764insFQEA cells. The method, boiled down: as §1

The target in experiment [5] is T5, Ba/F3 stable cells (Homo sapiens, UniProt P00533, T790M/L858R, cells depend on it).
T5 construct: EC50 Ba/F3-EGFR L858R-T790M; other: Ba/F3-EGFR L858R-T790M cells, 72 h, CCK-8
The following applies: Ba/F3-EGFR L858R-T790M cells. The method, boiled down:
as §1

Experiment [6] addresses T6, Ba/F3 stable cells (Homo sapiens, UniProt P04626, DUP772-775, cells depend on it).
T6 construct: EC50 Ba/F3-HER2 A775-G776insYVMA; other: Ba/F3-HER2 A775-G776insYVMA cells, 72 h, CCK-8
The following applies: Ba/F3-HER2 A775-G776insYVMA cells. The essentials: as §1

T2 sequence (P00533 with tags, fused parts or gaps DUP771-773): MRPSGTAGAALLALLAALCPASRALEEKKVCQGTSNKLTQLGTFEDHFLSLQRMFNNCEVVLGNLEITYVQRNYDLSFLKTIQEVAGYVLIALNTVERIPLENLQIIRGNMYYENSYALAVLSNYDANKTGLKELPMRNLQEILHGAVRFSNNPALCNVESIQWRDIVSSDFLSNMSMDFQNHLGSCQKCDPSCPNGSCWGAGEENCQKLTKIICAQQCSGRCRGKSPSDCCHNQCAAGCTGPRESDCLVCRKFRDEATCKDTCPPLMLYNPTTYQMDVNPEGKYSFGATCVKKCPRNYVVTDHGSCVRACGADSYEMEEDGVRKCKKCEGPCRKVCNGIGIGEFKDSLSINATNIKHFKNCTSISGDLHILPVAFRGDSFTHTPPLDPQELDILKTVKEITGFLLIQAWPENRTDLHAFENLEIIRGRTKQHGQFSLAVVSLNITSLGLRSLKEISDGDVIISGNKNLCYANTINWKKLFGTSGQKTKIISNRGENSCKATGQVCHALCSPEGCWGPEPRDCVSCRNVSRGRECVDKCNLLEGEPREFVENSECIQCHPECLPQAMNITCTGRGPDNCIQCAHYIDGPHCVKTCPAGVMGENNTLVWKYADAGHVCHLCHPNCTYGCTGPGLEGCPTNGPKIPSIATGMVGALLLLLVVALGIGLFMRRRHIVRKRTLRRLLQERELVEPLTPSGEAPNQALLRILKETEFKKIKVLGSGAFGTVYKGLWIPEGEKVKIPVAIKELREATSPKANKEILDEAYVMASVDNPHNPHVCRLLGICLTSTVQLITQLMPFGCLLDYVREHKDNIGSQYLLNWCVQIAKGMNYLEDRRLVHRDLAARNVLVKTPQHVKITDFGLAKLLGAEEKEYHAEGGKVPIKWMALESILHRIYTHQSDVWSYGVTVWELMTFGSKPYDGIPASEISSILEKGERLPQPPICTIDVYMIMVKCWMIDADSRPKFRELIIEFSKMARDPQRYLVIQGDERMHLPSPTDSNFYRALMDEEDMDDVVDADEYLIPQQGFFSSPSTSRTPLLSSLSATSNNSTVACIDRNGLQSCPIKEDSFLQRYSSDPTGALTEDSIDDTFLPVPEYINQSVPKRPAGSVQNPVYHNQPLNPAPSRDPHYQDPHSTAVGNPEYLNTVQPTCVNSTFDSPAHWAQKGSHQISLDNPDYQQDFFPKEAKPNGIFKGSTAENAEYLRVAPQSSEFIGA
T1 sequence (P00533 with tags, fused parts or gaps DUP768-770): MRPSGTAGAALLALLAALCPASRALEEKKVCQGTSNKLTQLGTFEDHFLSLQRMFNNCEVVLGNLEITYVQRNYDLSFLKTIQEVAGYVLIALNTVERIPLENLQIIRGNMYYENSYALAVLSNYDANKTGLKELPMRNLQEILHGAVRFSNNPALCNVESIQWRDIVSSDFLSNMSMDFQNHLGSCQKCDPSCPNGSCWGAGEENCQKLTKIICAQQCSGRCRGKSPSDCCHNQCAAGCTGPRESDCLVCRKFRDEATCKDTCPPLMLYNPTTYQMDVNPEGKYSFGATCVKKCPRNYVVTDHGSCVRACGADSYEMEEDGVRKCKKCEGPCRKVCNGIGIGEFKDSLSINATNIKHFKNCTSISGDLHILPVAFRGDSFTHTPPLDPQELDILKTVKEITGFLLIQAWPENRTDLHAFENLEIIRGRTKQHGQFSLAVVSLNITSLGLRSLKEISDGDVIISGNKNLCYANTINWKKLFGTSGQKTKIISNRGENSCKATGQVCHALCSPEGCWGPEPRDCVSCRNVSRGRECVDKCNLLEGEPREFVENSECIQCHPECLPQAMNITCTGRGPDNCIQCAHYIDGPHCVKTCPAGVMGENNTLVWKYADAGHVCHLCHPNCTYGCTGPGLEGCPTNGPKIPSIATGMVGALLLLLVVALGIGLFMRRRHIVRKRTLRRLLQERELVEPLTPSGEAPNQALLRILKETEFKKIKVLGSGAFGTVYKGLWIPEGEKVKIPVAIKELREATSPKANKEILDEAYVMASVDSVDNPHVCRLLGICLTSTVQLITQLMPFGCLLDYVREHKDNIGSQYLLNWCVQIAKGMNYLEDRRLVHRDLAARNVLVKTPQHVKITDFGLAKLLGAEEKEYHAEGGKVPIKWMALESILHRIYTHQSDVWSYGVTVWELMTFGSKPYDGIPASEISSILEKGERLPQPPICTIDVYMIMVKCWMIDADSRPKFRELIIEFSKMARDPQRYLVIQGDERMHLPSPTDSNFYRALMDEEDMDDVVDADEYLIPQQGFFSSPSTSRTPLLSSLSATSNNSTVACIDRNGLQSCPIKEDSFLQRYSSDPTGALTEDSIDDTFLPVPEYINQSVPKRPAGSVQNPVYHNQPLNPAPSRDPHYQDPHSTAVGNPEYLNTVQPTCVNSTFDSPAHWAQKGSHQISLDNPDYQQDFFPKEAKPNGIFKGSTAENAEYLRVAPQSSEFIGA
T6 sequence (P04626 with tags, fused parts or gaps DUP772-775): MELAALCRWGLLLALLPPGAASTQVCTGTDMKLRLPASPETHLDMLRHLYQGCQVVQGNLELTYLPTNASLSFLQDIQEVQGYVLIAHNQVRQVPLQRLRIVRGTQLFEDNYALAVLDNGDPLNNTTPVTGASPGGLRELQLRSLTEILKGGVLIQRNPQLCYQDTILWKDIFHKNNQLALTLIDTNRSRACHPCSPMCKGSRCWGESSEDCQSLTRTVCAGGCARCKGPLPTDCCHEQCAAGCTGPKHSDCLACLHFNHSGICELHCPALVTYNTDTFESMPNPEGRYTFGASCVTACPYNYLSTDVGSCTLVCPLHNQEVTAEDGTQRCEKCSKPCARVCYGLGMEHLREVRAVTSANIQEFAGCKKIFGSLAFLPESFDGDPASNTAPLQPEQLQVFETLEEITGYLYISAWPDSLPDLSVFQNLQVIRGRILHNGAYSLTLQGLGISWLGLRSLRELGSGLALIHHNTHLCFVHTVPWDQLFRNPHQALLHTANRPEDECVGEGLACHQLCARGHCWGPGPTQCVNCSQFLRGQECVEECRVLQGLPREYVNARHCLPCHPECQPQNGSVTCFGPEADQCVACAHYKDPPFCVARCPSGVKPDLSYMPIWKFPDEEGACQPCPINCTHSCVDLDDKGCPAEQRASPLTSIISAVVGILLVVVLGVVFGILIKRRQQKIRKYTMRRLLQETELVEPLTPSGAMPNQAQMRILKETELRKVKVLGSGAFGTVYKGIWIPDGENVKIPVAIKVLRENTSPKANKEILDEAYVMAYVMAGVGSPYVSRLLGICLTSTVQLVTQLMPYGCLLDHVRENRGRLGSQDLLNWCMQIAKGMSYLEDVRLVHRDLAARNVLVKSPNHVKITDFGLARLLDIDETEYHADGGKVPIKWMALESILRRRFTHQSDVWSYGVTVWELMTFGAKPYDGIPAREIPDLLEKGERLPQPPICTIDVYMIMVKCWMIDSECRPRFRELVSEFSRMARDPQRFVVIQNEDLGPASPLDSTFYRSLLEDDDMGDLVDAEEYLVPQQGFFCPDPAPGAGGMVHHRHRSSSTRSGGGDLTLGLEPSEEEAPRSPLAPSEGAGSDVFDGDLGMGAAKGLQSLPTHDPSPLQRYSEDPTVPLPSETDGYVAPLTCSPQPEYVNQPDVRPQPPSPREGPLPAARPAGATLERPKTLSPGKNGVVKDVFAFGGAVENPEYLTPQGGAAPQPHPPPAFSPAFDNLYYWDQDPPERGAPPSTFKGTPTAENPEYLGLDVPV
T5 sequence (P00533 whole entry T790M/L858R): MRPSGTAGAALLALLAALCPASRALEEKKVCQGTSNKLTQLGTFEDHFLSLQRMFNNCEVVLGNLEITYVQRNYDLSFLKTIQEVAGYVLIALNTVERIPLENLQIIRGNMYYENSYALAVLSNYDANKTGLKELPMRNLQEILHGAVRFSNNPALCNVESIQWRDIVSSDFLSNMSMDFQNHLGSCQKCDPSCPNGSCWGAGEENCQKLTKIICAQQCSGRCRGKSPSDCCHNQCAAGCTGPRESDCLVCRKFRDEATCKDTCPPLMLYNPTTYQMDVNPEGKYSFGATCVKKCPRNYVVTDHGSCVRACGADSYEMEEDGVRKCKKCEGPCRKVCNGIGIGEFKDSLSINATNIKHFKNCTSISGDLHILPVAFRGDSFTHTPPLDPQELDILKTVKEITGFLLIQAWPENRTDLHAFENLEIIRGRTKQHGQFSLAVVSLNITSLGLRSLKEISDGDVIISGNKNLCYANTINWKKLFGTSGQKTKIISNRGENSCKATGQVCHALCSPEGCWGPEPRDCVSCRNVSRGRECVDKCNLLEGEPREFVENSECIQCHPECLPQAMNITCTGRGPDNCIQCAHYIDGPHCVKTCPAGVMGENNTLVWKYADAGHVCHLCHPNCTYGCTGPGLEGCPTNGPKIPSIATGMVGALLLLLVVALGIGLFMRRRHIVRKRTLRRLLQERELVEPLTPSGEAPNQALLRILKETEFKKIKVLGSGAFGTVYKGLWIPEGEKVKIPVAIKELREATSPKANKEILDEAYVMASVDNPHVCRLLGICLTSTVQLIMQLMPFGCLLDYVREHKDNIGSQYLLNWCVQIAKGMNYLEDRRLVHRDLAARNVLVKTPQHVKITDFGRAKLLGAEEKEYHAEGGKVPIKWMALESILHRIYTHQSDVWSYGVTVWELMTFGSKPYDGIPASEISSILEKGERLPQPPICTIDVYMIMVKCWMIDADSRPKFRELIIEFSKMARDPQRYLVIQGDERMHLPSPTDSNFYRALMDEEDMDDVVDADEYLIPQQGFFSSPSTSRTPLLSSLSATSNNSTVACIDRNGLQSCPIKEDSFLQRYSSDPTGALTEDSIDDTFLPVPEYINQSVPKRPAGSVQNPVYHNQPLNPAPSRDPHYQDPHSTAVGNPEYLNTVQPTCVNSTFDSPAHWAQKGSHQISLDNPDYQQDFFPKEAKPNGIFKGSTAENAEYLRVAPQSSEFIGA

Regarding `C#CC(=O)N1CCCC(c2ccc3ncnc(Nc4ccc(Cl)c(Cl)c4F)c3c2)C1` (stereo not drawn) [Compound 61, 1-(3-(4-((3,4-dichloro-2-fluorophenyl)amino)quinazolin-6-yl)piperidin-1-yl)prop-2-yn-1-one], the EC50 on Ba/F3 stable cells [1] is at most 0.2 µM; on Ba/F3 stable cells [2] it was at most 0.2 µM; at Ba/F3 stable cells [3], at most 0.2 µM; on Ba/F3 stable cells [4] it was at most 0.2 µM; on Ba/F3 stable cells [5], at most 0.2 µM; at Ba/F3 stable cells [6], 0.2 to 1 µM.

With `C#CC(=O)N1CCC=C(c2ccc3ncnc(Nc4ccc(Cl)c(Cl)c4F)c3c2)C1` [Compound 62, 1-(5-(4-((3,4-dichloro-2-fluorophenyl)amino)quinazolin-6-yl)-3,6-dihydropyridin-1(2H)-yl)prop-2-yn-1-one], the EC50 is 0.2 to 1 µM at Ba/F3 stable cells [1]; 0.2 to 1 µM on Ba/F3 stable cells [2]; 0.2 to 1 µM on Ba/F3 stable cells [3]; at most 0.2 µM on Ba/F3 stable cells [4]; 0.2 to 1 µM on Ba/F3 stable cells [5]; 0.2 to 1 µM at Ba/F3 stable cells [6].

Consider `C#CC(=O)N1CCC=C(c2cc3c(Nc4ccc(Cl)c(Cl)c4F)ncnc3cc2OC)C1` [Compound 63, 1-(5-(4-((3,4-dichloro-2-fluorophenyl)amino)-7-methoxyquinazolin-6-yl)-3,6-dihydropyridin-1(2H)-yl)prop-2-yn-1-one], for which the EC50 at Ba/F3 stable cells [1] is at most 0.2 µM; at Ba/F3 stable cells [2], at most 0.2 µM; on Ba/F3 stable cells [3], at most 0.2 µM; at Ba/F3 stable cells [4], at most 0.2 µM; on Ba/F3 stable cells [5] it was at most 0.2 µM; on Ba/F3 stable cells [6], 0.2 to 1 µM.

In the case of `C=CC(=O)N[C@H]1C[C@@H](Oc2cc3c(Nc4ccc(Cl)c(Cl)c4F)ncnc3cc2OC)C1` [Compound 66, N-((1s,3s)-3-((4-((3,4-dichloro-2-fluorophenyl)amino)-7-methoxyquinazolin-6-yl)oxy)cyclobutyl)acrylamide], the EC50 at Ba/F3 stable cells [1] is 0.2 to 1 µM; on Ba/F3 stable cells [2], at most 0.2 µM; at Ba/F3 stable cells [3] it was at most 0.2 µM; on Ba/F3 stable cells [4], at most 0.2 µM; at Ba/F3 stable cells [5] it was at most 0.2 µM; at Ba/F3 stable cells [6] it was at most 0.2 µM.

In the case of `C=CC(=O)NC1CC(Oc2cc3c(Nc4ccc(C)c5c4CCC5)ncnc3cc2OC)C1` (stereo not drawn) [Compound 67, N-(3-((7-methoxy-4-((7-methyl-2,3-dihydro-1H-inden-4-yl)amino)quinazolin-6-yl)oxy)cyclobutyl)acrylamide], the concentration for a half-maximal effect (EC50) was above 1 µM at Ba/F3 stable cells [1]; above 1 µM at Ba/F3 stable cells [2]; above 1 µM on Ba/F3 stable cells [3]; 0.2 to 1 µM at Ba/F3 stable cells [4]; above 1 µM at Ba/F3 stable cells [5]; above 1 µM at Ba/F3 stable cells [6].

Take `C=CC(=O)NC1CC(Oc2cc3c(Nc4ccc(F)c5c4CCC5=O)ncnc3cc2OC)C1` (stereo not drawn) [Compound 68, N-(3-((4-((7-fluoro-1-oxo-2,3-dihydro-1H-inden-4-yl)amino)-7-methoxyquinazolin-6-yl)oxy)cyclobutyl)acrylamide]: the EC50 at Ba/F3 stable cells [1], on Ba/F3 stable cells [2], on Ba/F3 stable cells [3], on Ba/F3 stable cells [4], on Ba/F3 stable cells [5] and at Ba/F3 stable cells [6] was above 1 µM in each case.

Turning to `C=CC(=O)NC1CC(Oc2cc3c(Nc4ccc(F)c5c4CCC5O)ncnc3cc2OC)C1` (stereo not drawn) [Compound 69, N-(3-((4-((7-fluoro-1-hydroxy-2,3-dihydro-1H-inden-4-yl)amino)-7-methoxyquinazolin-6-yl)oxy)cyclobutyl)acrylamide], the EC50 on Ba/F3 stable cells [1], on Ba/F3 stable cells [2], on Ba/F3 stable cells [3], at Ba/F3 stable cells [4], at Ba/F3 stable cells [5] and on Ba/F3 stable cells [6] was above 1 µM in each case.

On to `C=CC(=O)NC1CC(Oc2cc3c(Nc4ccc5c(c4)CCCC5=O)ncnc3cc2OC)C1` (stereo not drawn) [Compound 70, N-(3-((7-methoxy-4-((5-oxo-5,6,7,8-tetrahydronaphthalen-2-yl)amino)quinazolin-6-yl)oxy)cyclobutyl)acrylamide], for which the half-maximal effective concentration (EC50) at Ba/F3 stable cells [1], at Ba/F3 stable cells [2], on Ba/F3 stable cells [3], on Ba/F3 stable cells [4], on Ba/F3 stable cells [5] and on Ba/F3 stable cells [6] was above 1 µM each time.

With `C=CC(=O)NC1CC(Oc2cc3c(Nc4ccc5c(c4)CCCC5O)ncnc3cc2OC)C1` (stereo not drawn) [Compound 71, N-(3-((4-((5-hydroxy-5,6,7,8-tetrahydronaphthalen-2-yl)amino)-7-methoxyquinazolin-6-yl)oxy)cyclobutyl)acrylamide], the EC50 on Ba/F3 stable cells [1], on Ba/F3 stable cells [2], on Ba/F3 stable cells [3], on Ba/F3 stable cells [4], at Ba/F3 stable cells [5] and at Ba/F3 stable cells [6] was above 1 µM each time.

Regarding `C=CC(=O)N(C)C1CC(Oc2cc3c(Nc4ccc(Cl)c(Cl)c4F)ncnc3cc2OC)C1` (stereo not drawn) [Compound 72, N-(3-((4-((3,4-dichloro-2-fluorophenyl)amino)-7-methoxyquinazolin-6-yl)oxy)cyclobutyl)-N-methylacrylamide], the EC50 on Ba/F3 stable cells [1] was at most 0.2 µM; at Ba/F3 stable cells [2] it was at most 0.2 µM; at Ba/F3 stable cells [3] it was at most 0.2 µM; on Ba/F3 stable cells [4], at most 0.2 µM; at Ba/F3 stable cells [5] it was 0.2 to 1 µM; on Ba/F3 stable cells [6], 0.2 to 1 µM.

On to `C=CC(=O)NC1CC(Oc2cc3c(Nc4ccc(Cl)c(Cl)c4)ncnc3cc2OC)C1` (stereo not drawn) [Compound 73, N-(3-((4-((3,4-dichlorophenyl)amino)-7-methoxyquinazolin-6-yl)oxy)cyclobutyl)acrylamide], for which the EC50 at Ba/F3 stable cells [1] is 0.2 to 1 µM; on Ba/F3 stable cells [2], 0.2 to 1 µM; on Ba/F3 stable cells [3] it was at most 0.2 µM; at Ba/F3 stable cells [4], at most 0.2 µM; on Ba/F3 stable cells [5] it was above 1 µM; on Ba/F3 stable cells [6], 0.2 to 1 µM.

On to `C=CC(=O)NC1CC(Oc2cc3c(Nc4cccc(Cl)c4F)ncnc3cc2OC)C1` (stereo not drawn) [Compound 74, N-(3-((4-((3-chloro-2-fluorophenyl)amino)-7-methoxyquinazolin-6-yl)oxy)cyclobutyl)acrylamide], for which the EC50 at Ba/F3 stable cells [1] is 0.2 to 1 µM; on Ba/F3 stable cells [2] it was at most 0.2 µM; on Ba/F3 stable cells [3], at most 0.2 µM; on Ba/F3 stable cells [4], at most 0.2 µM; at Ba/F3 stable cells [5], 0.2 to 1 µM; at Ba/F3 stable cells [6], at most 0.2 µM.

As for `C=CC(=O)NC1CC(Oc2cc3c(Nc4ccc(Cl)c(F)c4Cl)ncnc3cc2OC)C1` (stereo not drawn) [Compound 75, N-(3-((4-((2,4-dichloro-3-fluorophenyl)amino)-7-methoxyquinazolin-6-yl)oxy)cyclobutyl)acrylamide], the EC50 was above 1 µM at Ba/F3 stable cells [1]; 0.2 to 1 µM at Ba/F3 stable cells [2]; 0.2 to 1 µM on Ba/F3 stable cells [3]; at most 0.2 µM on Ba/F3 stable cells [4]; 0.2 to 1 µM on Ba/F3 stable cells [5]; 0.2 to 1 µM at Ba/F3 stable cells [6].

In the case of `C=CC(=O)NC1CC(Oc2cc3c(Nc4ccc(F)c(Cl)c4Cl)ncnc3cc2OC)C1` (stereo not drawn) [Compound 76, N-(3-((4-((2,3-dichloro-4-fluorophenyl)amino)-7-methoxyquinazolin-6-yl)oxy)cyclobutyl)acrylamide], the EC50 is 0.2 to 1 µM at Ba/F3 stable cells [1]; 0.2 to 1 µM on Ba/F3 stable cells [2]; at most 0.2 µM on Ba/F3 stable cells [3]; at most 0.2 µM at Ba/F3 stable cells [4]; above 1 µM at Ba/F3 stable cells [5]; 0.2 to 1 µM on Ba/F3 stable cells [6].

On to `C=CC(=O)N[C@H]1C[C@H](Oc2cc3c(Nc4ccccc4F)ncnc3cc2OC)C1` [Compound 77, N-(3-((4-((2-fluorophenyl)amino)-7-methoxyquinazolin-6-yl)oxy)cyclobutyl)acrylamide], for which the 50% effective concentration (EC50) is above 1 µM on Ba/F3 stable cells [1]; 0.2 to 1 µM on Ba/F3 stable cells [2]; 0.2 to 1 µM at Ba/F3 stable cells [3]; at most 0.2 µM on Ba/F3 stable cells [4]; above 1 µM at Ba/F3 stable cells [5]; 0.2 to 1 µM at Ba/F3 stable cells [6].

As to `C=CC(=O)NC1CC(Oc2cc3c(Nc4ccc(Cl)cc4F)ncnc3cc2OC)C1` (stereo not drawn) [Compound 78, N-(3-((4-((4-chloro-2-fluorophenyl)amino)-7-methoxyquinazolin-6-yl)oxy)cyclobutyl)acrylamide], the EC50 on Ba/F3 stable cells [1] is above 1 µM; at Ba/F3 stable cells [2], 0.2 to 1 µM; at Ba/F3 stable cells [3], at most 0.2 µM; on Ba/F3 stable cells [4], at most 0.2 µM; on Ba/F3 stable cells [5], above 1 µM; on Ba/F3 stable cells [6], 0.2 to 1 µM.

Consider `C=CC(=O)N[C@H]1C[C@H](Oc2cc3c(Nc4ccc(Cl)c(Cl)c4F)ncnc3cc2OC)C1` [Compound 79, N-((1r,3r)-3-((4-((3,4-dichloro-2-fluorophenyl)amino)-7-methoxyquinazolin-6-yl)oxy)cyclobutyl)acrylamide], for which the 50% effective concentration (EC50) on Ba/F3 stable cells [1] is above 1 µM; on Ba/F3 stable cells [2], 0.2 to 1 µM; at Ba/F3 stable cells [3], at most 0.2 µM; at Ba/F3 stable cells [4], at most 0.2 µM; at Ba/F3 stable cells [5] it was above 1 µM; on Ba/F3 stable cells [6], 0.2 to 1 µM.
